Data reported in US20230293539A1, “MLL1-WDR5 PROTEIN-PROTEIN INTERACTION INHIBITOR COMPOUNDS AND USES THEREOF” (HUYABIO International, LLC, priority 2022, published 2023).

What was measured:
WDR5 [1] = target: T1, WDR5 (Homo sapiens, UniProt P61964); test: Selectivity panel (Table 3); assay type: binding
MALTI = MALTI (Homo sapiens, UniProt Q9UDY8); test: Selectivity panel (Table 3); assay type: biochemical
BRD4-BD2 = target: T2, BRD4-BD2 (Homo sapiens, UniProt O60885); test: Selectivity panel (Table 3); assay type: binding
T2 construct: BRD4-BD2

hERG = hERG (Homo sapiens, UniProt Q12809); test: hERG IC50; assay type: cell-based
HDAC6 = HDAC6 (Homo sapiens, UniProt Q9UBN7); test: Selectivity panel (Table 3); assay type: biochemical
HDAC6, sequence (Q9UBN7 whole entry, species assumed): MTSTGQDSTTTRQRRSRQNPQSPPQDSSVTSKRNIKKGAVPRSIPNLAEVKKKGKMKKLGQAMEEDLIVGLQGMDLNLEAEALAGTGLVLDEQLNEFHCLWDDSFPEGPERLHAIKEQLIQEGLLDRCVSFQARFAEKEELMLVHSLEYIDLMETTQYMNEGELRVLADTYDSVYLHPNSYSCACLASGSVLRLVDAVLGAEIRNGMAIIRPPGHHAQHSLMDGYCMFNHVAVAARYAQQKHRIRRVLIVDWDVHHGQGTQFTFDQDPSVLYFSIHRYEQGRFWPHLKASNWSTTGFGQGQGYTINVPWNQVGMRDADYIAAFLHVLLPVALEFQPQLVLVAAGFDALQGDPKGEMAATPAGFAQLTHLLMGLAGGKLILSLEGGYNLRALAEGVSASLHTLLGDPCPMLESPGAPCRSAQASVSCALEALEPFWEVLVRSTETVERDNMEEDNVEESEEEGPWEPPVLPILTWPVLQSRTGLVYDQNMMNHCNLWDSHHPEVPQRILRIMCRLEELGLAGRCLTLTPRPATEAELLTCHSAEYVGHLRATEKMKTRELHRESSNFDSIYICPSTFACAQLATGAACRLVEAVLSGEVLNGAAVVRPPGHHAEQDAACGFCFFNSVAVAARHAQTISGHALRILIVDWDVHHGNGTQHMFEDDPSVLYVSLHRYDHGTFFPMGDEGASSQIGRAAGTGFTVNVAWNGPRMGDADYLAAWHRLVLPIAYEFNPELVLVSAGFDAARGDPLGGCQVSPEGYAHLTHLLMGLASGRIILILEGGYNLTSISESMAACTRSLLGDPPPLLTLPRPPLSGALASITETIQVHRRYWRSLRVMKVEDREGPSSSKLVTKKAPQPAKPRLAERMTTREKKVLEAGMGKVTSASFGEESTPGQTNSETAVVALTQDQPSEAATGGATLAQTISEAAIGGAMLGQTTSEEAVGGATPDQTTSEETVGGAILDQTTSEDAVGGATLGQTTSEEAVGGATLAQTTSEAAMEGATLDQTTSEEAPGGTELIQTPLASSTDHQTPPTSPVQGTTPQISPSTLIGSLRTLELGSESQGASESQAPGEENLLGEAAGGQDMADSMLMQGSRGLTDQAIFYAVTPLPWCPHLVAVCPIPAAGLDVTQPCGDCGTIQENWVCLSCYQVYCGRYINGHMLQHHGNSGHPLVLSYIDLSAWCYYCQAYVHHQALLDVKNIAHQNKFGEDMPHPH

in vitro = conditions: cynomolgus monkey, plasma
ATX = ATX (Homo sapiens, UniProt Q13822); test: Selectivity panel (Table 3); assay type: biochemical
BRD4-BD1 = target: T3, BRD4-BD1 (Homo sapiens, UniProt O60885); test: Selectivity panel (Table 3); assay type: binding
T3 construct: BRD4-BD1

TEAD2 = TEAD2 (Homo sapiens, UniProt Q15562); test: Selectivity panel (Table 3); assay type: binding
TEAD2, sequence (Q15562 whole entry, species assumed): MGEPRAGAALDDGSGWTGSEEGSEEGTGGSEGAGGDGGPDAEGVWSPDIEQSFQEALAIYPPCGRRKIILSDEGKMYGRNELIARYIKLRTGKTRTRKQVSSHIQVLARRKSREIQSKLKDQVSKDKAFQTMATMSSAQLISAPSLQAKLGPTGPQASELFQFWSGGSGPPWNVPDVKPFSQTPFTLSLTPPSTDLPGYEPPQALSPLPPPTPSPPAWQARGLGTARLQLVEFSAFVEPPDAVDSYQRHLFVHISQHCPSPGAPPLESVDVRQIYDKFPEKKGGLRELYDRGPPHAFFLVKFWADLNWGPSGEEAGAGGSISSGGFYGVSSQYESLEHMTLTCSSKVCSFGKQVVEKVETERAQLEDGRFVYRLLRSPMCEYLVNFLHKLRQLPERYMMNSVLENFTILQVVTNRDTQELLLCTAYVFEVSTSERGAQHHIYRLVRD

HDAC2 = HDAC2 (Homo sapiens, UniProt Q92769); test: Selectivity panel (Table 3); assay type: biochemical
HDAC2, sequence (Q92769 whole entry, species assumed): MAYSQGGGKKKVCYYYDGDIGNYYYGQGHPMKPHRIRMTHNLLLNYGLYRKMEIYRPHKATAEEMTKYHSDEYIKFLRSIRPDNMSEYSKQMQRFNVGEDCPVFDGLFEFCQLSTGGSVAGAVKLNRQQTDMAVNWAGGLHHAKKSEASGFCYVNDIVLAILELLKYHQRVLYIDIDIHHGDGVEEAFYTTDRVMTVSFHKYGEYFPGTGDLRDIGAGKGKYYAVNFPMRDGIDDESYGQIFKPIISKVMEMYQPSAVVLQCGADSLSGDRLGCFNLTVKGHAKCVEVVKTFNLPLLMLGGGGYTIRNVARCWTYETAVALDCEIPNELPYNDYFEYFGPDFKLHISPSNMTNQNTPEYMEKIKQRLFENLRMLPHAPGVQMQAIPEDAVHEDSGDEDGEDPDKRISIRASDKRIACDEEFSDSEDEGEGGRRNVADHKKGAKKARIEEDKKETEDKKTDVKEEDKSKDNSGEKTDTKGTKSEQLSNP

Liver S9 stability assay = assay type: in vitro ADME, human
Description: Liver S9 stability assay: Test compounds (1 μM) and positive control were incubated with 5 mM GSH and liver S9 (1 mg protein/ml) from multiple species (including human, monkey, dog, rat and mouse) at 37° C. at 0, 10, 30, and 60 minutes in duplicate. After adding the stop solution, 100 μL of supernatant were analyzed by LC-MS/MS. The % remaining of test compound, T1/2 (min), and CLint (μL/min/mg) were calculated and were reported.

MV 411 cells = test: Cell Viability Assay (CellTiter-Glo); assay type: cell-based; conditions: Homo sapiens, MV4-11, 72 hours, read-out: IC50 (anti-proliferative activity against leukemia cells)
Description: Cell lines and maintenance: All cell lines (MV 411) used for in vitro and in vivo studies were supplied as part of Wuxi AppTech cell bank. Cell lines were maintained in a medium supplemented with 10% heat inactivated fetal bovine serum at 37° C., in an atmosphere of 5% CO2, in air. The tumor cells were routinely subcultured twice weekly. The cells growing in an exponential growth phase were used for the in vitro cell potency and in vivo efficacy studies.
EXAMPLE 1: Cell Viability Assay: For cell cytotoxicity assays, 2000 cells/well were plated in 384-well plates. Twenty four hours after plating, cells were treated with inhibitors at the indicated compound concentrations. On Day 3 (72 hours), cells were lysed with CellTiter-Glo® Luminescent Cell Viability Assay reagent (Promega) and luminescence was read using the EnVision Multi-plate reader. To calculate IC50, a dose-response curve is generated using a nonlinear regression model with a sigmoidal dose response. The formula of surviving rate is shown below. IC50 values were automatically generated by GraphPad Prism 8.0. See FIG. 1A and FIG. 1B and Tables 3 and 4.

PD-1/PD-L1 = PD-1/PD-L1 (Homo sapiens, UniProt Q9NZQ7); test: Selectivity panel (Table 3); assay type: binding
PD-1/PD-L1, sequence (Q9NZQ7 19-238 limits assumed): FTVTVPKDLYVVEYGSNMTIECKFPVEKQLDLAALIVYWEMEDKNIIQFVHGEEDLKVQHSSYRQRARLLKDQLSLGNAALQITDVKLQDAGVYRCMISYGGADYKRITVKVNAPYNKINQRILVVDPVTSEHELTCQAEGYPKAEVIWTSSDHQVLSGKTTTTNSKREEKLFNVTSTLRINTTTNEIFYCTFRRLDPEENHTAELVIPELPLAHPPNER

[2] = Metabolite ID in Liver S9; assay type: in vitro ADME; conditions: HBI-2375 and metabolites in Dog liver S9
HDAC1 = HDAC1 (Homo sapiens, UniProt Q13547); test: Selectivity panel (Table 3); assay type: biochemical
HDAC1, sequence (Q13547 whole entry, species assumed): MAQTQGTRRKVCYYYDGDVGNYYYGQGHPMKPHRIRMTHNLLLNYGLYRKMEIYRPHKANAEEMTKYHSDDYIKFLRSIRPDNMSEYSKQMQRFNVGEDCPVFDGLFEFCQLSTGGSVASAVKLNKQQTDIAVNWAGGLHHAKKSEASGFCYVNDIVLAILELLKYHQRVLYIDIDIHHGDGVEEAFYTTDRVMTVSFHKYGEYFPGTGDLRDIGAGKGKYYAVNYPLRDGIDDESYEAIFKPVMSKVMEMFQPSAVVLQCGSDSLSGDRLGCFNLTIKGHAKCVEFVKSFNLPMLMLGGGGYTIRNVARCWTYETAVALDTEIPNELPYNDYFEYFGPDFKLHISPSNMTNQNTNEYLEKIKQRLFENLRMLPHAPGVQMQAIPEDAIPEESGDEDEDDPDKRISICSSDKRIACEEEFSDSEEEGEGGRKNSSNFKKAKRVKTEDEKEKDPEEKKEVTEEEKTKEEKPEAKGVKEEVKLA

GLS1 = GLS1 (Homo sapiens, UniProt O94925); test: Selectivity panel (Table 3); assay type: biochemical
GLS1, sequence (O94925 73-669 limits assumed, species assumed): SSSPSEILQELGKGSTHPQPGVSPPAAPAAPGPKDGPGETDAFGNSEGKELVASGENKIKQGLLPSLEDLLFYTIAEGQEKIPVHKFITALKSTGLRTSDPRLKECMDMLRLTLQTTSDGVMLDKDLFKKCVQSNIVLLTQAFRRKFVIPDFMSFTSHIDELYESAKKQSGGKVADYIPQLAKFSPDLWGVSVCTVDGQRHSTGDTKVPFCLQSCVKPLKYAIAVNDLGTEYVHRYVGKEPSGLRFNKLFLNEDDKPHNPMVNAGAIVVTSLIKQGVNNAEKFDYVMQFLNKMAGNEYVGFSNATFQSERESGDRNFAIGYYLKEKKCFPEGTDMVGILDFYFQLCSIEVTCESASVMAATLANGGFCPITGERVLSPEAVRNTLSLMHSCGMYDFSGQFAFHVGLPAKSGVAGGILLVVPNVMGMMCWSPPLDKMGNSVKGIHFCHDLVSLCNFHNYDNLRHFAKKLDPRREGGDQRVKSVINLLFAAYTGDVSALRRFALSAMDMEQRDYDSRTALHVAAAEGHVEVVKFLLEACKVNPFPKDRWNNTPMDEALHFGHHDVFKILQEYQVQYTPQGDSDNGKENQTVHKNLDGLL

SHP2 E76K = SHP2 E76K (Homo sapiens, UniProt Q06124, E76K); test: Selectivity panel (Table 3); assay type: biochemical
SHP2 E76K, sequence (Q06124 whole entry E76K): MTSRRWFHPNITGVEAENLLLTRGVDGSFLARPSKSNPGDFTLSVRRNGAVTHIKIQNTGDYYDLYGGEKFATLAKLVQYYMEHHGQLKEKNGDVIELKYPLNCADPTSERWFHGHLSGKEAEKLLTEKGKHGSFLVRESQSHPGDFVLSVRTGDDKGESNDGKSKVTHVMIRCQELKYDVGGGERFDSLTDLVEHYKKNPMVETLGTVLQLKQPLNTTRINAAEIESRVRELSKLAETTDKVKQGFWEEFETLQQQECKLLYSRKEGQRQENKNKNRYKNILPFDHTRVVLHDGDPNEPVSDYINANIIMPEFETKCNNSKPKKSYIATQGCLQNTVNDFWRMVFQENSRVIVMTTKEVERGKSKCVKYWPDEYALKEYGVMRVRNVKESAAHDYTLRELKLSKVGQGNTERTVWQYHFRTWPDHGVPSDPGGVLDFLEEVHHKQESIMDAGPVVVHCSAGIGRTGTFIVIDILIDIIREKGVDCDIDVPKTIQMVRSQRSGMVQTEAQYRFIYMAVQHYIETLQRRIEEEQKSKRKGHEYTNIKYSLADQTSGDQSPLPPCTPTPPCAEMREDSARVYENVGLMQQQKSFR

WDR5 [3] = target: T1, WDR5; test: WDR5 TR-FRET Assay; assay type: binding; conditions: 5 nM WDR5 protein, 10 nM peptide, read-out: IC50 (MLL1-WDR5 PPI inhibitory activity)
Description: WDR5 TR-FRET Assay Procedure: Stock compounds were transferred to the assay plate by Echo Liquid Handler. Reactions were performed in the assay buffer (1×PBS, 300 mM NaCl, 0.5 mM TCEP, 0.1% CHAPS) containing 5 nM WDR5 protein, 10 nM peptide (Ac-ARTEVHLRKS-[Ahx-Ahx][C]-Alexa Fluor 488-NH2) and 0.25 nM Tb-anti His antibody (Tb-Ab) in 384-well white plate (PerkinElmer) with a final volume of 20 μl. Compounds were incubated with WDR5 protein for 30 min at room temperature. Plates were covered, protected from light and incubated for 60 min. at room temperature after adding the peptide and Tb-Ab. EnVision Multimode Plate Reader (PerkinElmer) was used for the TR-FRET assay with excitation wavelength at 340 nm and emission wavelength at 495 and 520 nm. The ratio of the 520/495 nm wavelengths were used to assess the degree of the FRET signal. IC50 was calculated by fitting the inhibition data using XLfit software to sigmoidal dose-response model.

MALTI, sequence (Q9UDY8 whole entry): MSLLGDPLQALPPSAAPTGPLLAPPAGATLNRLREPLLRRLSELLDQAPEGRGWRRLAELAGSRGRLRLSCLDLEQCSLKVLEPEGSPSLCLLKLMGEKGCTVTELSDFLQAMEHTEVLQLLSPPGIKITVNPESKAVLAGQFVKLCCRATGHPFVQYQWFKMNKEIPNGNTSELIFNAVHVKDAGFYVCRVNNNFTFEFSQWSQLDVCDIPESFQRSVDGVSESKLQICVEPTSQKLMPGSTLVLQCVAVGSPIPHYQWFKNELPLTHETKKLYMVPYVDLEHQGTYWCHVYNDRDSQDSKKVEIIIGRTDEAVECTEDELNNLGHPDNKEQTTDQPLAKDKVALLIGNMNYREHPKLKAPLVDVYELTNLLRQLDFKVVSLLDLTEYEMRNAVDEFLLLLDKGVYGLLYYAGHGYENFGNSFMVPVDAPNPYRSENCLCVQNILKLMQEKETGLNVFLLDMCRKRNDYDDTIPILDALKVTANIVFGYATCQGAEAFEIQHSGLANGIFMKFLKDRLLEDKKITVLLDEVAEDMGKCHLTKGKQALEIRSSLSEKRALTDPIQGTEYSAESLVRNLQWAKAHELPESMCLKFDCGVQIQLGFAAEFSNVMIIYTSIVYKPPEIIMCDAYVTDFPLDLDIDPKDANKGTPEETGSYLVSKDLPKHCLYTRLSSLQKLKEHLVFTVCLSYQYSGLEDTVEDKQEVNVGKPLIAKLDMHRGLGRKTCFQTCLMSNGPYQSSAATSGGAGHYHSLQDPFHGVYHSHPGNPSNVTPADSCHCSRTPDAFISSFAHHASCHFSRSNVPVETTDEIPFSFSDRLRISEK

For `Cc1c(F)c(N)cc(C(=O)Nc2cc(-n3cc(C(=O)N4CCN(C)CC4)nn3)c(F)cc2N2C[C@@H](C)N(C)[C@@H](C)C2)c1Cl` [HYBI-084, 5-amino-2-chloro-4-fluoro-N-(4-fluoro-5-(4-(4-methylpiperazine-1-carbonyl)-1H-1,2,3-triazol-1-yl)-2-((3S,5R)-3,4,5-trimethylpiperazin-1-yl)phenyl)-3-methylbenzamide], the IC50 (WDR5 [1]) was 0.683 nM, the IC50 (MALTI) was > 1000 nM and the IC50 (BRD4-BD2) was > 1000 nM. For the same molecule, the IC50 (hERG) was 22200 nM, the IC50 (HDAC6) was > 1000 nM and the fraction unbound (in vitro) was < 0.24. For the same molecule, the IC50 (ATX) was > 1000 nM, the IC50 (BRD4-BD1) was > 1000 nM and the IC50 (TEAD2) was > 1000 nM. The IC50 (HDAC2) was > 1000 nM, the half-life at 1 μM (Liver S9 stability assay; Human liver S9) was > 2.42 h and the microsomal CLint at 1 μM (Liver S9 stability assay; Human liver S9) was < 4.8 µL/min/mg. The “% Remaining after 60 min incubation” value (Liver S9 stability assay; Human liver S9, 1 μM, 5 mM GSH, 37° C.) was 85.1%, the IC50 (MV 411 cells) was 3170 nM and the IC50 (PD-1/PD-L1) was > 1000 nM. The “Relative Abundance (UV Peak Area % Total)” value [2] was 70.71%, the IC50 (HDAC1) was > 1000 nM and the IC50 (GLS1) was > 1000 nM. For the same molecule, the IC50 (SHP2 E76K) was > 1000 nM and the IC50 (WDR5 [3]) was 4.48 nM.
